Data as given in US11987570B1, “10-(2-hydroxyethyl)-9-(2-hydroxypyridin-3-yl)-3,4,6,7,9,10-hexahydroacridine-1,8(2H,5H)-dione as an antimicrobial compound” (KING FAISAL UNIVERSITY, priority 2023, dated 2024).

Columns and labels:
Format in all cases: cell-based
Settings in all cases: after 10, 20, 40 and 60 minutes at all dilutions 1:100, 1:200, 1:400, 1:800
[1] = system: Candida albicans; experiment: Antimicrobial screening by agar dilution, Candida albicans
Procedure: (§1) The antibacterial properties of the synthesized compound (10-(2-hydroxyethyl)-9-(2-hydroxypyridin-3-yl)-3,4,6,7,9,10-hexahydroacridine-1,8(2H,5H)-dione) were studied by the method of agar dilution. Test solutions of each compound was prepared in concentration of 1% using dimethylformamide as a solvent then they are diluted in physiological solution to obtain the final experimental dilutions 1:100, 1:200, 1:400, 1:800. The effect of these substances are compared with furacillin in a controllable study. The testing microbes used were gram positive bacteria Staphylococcus aureus, gram negative bacteria Pseudomonas aeruginosa and Escherichia coli and Candida albicans fungus. The experiments used for this survey were meat-pentonlu agar (EPA) for cultivation of bacteria and Saburo environment for the fungus. Each experiment used 1 mL of test solution on each plate […]. Two drops of emulsified with microbes feel were added. All experimental samples were taken from the agar after 10, 20, 40, 60 minutes in the environment on the basis of Patrk planted. The bacteria were cultivated at a temperature of 37° C. for 1 day and the mushroom was kept in a thermostat for 2 hours at a temperature of 28° C. Then results were checked.

[2] = system: Pseudomonas aeruginosa; experiment: Antimicrobial screening by agar dilution, Pseudomonas aeruginosa
Procedure: as §1

[3] = system: Staphylococcus aureus; experiment: Antimicrobial screening by agar dilution, Staphylococcus aureus
Procedure: as §1

[4] = system: Escherichia coli; experiment: Antimicrobial screening by agar dilution, Escherichia coli
Procedure: as §1

Measured: inhibition activity

O=C1CCCC2=C1C(c1cccnc1O)C1=C(CCCC1=O)N2CCO [10-(2-hydroxyethyl)-9-(2-hydroxypyridin-3-yl)-3,4,6,7,9,10-hexahydroacridine-1,8(2H,5H)-dione]
highest inhibition activity: all assays above
